pIC50: −log10 of the molar value. Where two headings read alike, the source gives them in different places.

In general, pIC50 refers to the IC50 on a negative log10 scale, so that one unit is a factor of ten.

Experiment [1] relates to platelet aggregation. As to the kind of experiment: Platelet aggregation inhibitory activity (ADP-induced, human platelet rich plasma). It is filed as cell-based. Put shortly:
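Citrated human platelet-rich plasma […] was stirred with test compound for 2 min at 37 °C. Aggregation was then induced with ADP at 3 μg/ml final and monitored by nephelometry. IC50 is the concentration giving 50% inhibition of aggregation.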

Another experiment deals with T1, human fibrinogen (Homo sapiens, UniProt P05106+P08514).
T1 construct: centrifuged at 11000 rpm for two minutes to give human platelet; from tissue
T1 sequence (P08514 32-887 limits assumed): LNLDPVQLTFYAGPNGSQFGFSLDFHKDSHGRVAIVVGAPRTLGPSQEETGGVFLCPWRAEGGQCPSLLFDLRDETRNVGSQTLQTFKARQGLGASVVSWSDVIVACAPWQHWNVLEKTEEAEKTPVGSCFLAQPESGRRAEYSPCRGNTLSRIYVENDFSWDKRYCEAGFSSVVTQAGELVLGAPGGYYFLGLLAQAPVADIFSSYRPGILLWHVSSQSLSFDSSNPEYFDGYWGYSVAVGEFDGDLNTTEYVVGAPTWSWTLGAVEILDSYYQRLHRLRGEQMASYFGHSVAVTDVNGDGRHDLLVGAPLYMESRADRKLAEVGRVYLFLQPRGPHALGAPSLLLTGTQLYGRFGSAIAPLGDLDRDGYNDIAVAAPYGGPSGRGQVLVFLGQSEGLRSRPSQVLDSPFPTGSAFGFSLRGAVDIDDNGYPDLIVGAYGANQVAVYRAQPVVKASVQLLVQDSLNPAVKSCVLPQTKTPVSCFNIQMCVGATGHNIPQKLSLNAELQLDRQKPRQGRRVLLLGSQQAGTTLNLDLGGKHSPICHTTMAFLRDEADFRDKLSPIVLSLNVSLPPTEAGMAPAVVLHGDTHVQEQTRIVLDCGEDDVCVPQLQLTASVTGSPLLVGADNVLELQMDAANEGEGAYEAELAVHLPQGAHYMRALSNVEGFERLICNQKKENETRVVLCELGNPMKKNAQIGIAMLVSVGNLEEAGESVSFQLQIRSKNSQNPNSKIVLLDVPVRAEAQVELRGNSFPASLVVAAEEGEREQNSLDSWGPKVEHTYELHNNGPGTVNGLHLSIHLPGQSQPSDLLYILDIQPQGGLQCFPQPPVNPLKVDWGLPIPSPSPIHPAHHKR
T1 sequence (P08514 891-1039 limits assumed): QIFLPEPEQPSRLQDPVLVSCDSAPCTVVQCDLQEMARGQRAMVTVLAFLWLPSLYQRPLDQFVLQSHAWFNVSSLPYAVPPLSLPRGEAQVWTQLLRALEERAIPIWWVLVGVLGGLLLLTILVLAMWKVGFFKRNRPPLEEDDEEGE
T1 sequence (P05106 27-788): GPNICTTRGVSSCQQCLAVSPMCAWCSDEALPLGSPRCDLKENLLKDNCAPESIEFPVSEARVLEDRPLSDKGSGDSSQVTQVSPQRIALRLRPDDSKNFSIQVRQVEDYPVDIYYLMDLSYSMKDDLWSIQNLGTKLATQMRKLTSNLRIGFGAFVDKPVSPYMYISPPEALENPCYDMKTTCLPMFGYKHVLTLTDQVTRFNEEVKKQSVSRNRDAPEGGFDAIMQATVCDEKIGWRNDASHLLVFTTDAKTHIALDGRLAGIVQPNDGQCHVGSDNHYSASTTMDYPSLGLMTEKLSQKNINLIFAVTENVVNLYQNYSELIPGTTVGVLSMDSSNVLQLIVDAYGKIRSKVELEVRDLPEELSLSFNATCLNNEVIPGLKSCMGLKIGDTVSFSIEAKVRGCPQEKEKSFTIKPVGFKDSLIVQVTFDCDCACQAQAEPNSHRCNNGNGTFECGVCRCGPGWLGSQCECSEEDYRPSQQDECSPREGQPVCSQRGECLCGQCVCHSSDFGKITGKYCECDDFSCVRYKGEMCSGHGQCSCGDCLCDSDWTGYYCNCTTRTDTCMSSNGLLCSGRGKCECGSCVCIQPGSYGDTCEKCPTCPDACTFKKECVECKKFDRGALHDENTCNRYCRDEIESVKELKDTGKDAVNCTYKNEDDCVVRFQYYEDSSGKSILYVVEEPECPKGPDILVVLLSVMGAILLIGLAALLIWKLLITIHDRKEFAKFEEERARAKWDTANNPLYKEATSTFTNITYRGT
As to the kind of experiment: Binding assay of platelet to adhesive protein: fibrinogen (receptor binding inhibition). The conditions noted are these: Table 4; fixed activated human platelets, 37° C., 60 minutes. The protocol:
(§1) The blood was taken out from the elbow vein of a normal volunteer, and mixed with 1/10 volume of 3.8% sodium citrate. The blood was centrifuged at 1,000 rpm (150 g) for 10 minutes, and the supernatant is collected as a platelet rich plasma (PRP). The precipitates are centrifuged at 11,000 rpm (6000 g) for two minutes, and the supernatant is collected as a platelet poor plasma (PPP). To PRP is added prostaglandin I2 (PGl2) at a final concentration of 50 ng/ml, and the mixture was centrifuged at 11000 rpm for two minutes to give human platelet. The platelet was activated by washing with 3.8 mM HEPES-buffer (pH 7.4, Tyrode-HEPES buffer) containing 0.14 M sodium chloride, 2.7 mM potassium chloride, 3.7 mM sodium dihydrogen phosphate, 0.98 mM magnesium chloride, 1 mg/ml glucose, 50 ng/ml PGl2 and 0.35% bovine serum albumin (BSA), adding thereto 5 μM epinephrine, and 30 μM ADP (adenosine diphosphate), followed by being allowed to stand at room temperature for five minutes. To the activated platelet was added 0.05% p-formaldehyde, and the mixture was allowed to stand at room temperature for 30 minutes to give the fixed platelet, which was suspended in Tyrode-HEPES buffer to give a platelet suspension of a concentration of 2×10^8 ml^-1.
(§2) Human fibrinogen from which fibronectin was previously removed by passing through gelatin-cepharose, human fibronectin or human vitronectin was diluted with 0.1 M aqueous sodium hydrogen carbonate solution to a concentration of 5 μg/ml, and the protein solution is put into a 96-well microplate at a volume of 200 μl/well. The microplate was allowed to stand at 4° C. overnight. The plate was washed with phosphate buffered saline (PBS), and subjected to blocking with 3% BSA at 37° C. for one hour. To the plate were added a platelet suspension (final concentration, 10^8 ml^-1) and a test compound of various concentrations (total volume, 200 μl/well), and the plate was incubated at 37° C. for 60 minutes. The plate was treated with 1000-fold diluted enzyme (HRP)-labelled anti-mouse IgG polyclonal antibody at 37° C. for 60 minutes, and thereto was added HRP chromogenic substrate (0.1 M phosphate buffer containing 0.4 mg/ml O-phenylenediamine,0.01% hydrogen peroxide, 0.1 M citric acid, pH 5), and reacted at room temperature for 15 minutes. The reaction was terminated by adding thereto 4.5 M sulfuric acid at a volume of 25 μl/well, and the absorbance at 490 nm was measured.

A further experiment relates to human fibronectin. The experiment in a line: Binding assay of platelet to adhesive protein: fibronectin (receptor binding inhibition). The conditions noted are these: Table 4; fixed activated human platelets, 37° C., 60 minutes. As for the experimental part:
as §1, §2

A further experiment deals with human vitronectin. As to the kind of experiment: Binding assay of platelet to adhesive protein: vitronectin (receptor binding inhibition). The conditions noted are these: Table 4; fixed activated human platelets, 37° C., 60 minutes; read-out: receptor binding inhibition (IC50), Bitronectin. As for the experimental part: as §1, §2
In experiment [2] the test system is platelet aggregation. As to the kind of experiment: Platelet aggregation inhibitory activity (ex vivo) after oral administration. It is filed as in vivo. Conditions: Cavia porcellus, guinea pig, oral 0.1 mg/kg, ADP 10 μg/ml. The protocol:
A canula for collecting blood was inserted into the left common carotid artery of a guinea pig which was anesthetized with pentobarbital (30 mg/kg, i.p.). The blood (1 ml) was taken with a syringe containing 1/10 volume of 3.8% sodium citrate (Kettin-citrate, manufactured by Kokusai Shiyaku Ltd.), and the platelet aggregation ability thereof was measured (as a value before administration). Then, a test compound was orally administered to the guinea pig at a dose of 0.1 mg/kg in a volume of 5 ml/kg, and the blood was collected periodically likewise at 0.5, 1, 2, 4 and 6 hours after the administration of the test compound, and the platelet aggregation ability thereof was measured.
The determination of the platelet aggregation ability was carried out by turbidimetry using a Hematracer (Niko Bioscience) as follows. That is, the blood was centrifuged at 4500 rpm at room temperature for 10 seconds, and the supernatant was considered as platelet rich plasma (PRP), and the precipitate was centrifuged at 11000 rpm for two minutes and its supernatant was considered as platelet poor plasma (PPP), and the photo-transmittance of the PRP and the PPP was adjusted to 0%, and 100%, respectively. A cubet containing PRP (200 μl) was inserted to a measurement well, and […] at 1000 rpm at 37° C. for two minutes, and thereto was added a platelet aggregator; ADP (adenosine diphosphate, Sigma Ltd., 20 μl, final concentration; 10 μg/ml), and the maximum aggregation rate was measured. From the maximum aggregation rate before the administration of the test compound (MAR control) and the maximum aggregation rate after the administration of the test compound (MAR sample), the platelet aggregation inhibitory rate of each test compound was estimated according to the following equation.
Inhibitory rate (%)=(1-(MAR sample/MAR control))×100
The periodical change in the platelet aggregation inhibitory rate of each test compound at a dose of 0.1 mg/kg of oral administration is shown in Table 5.

Setting [3] is: Table 1, human PRP, ADP 3 μg/ml, 37° C.
The mark [4] stands for this setting: 0.5 hr, read-out: platelet aggregation inhibitory rate (%), 0.5 hr.
[5] abbreviates: 1 hr, read-out: platelet aggregation inhibitory rate (%), 1 hr.
Where [6] appears, read: 2 hrs, read-out: platelet aggregation inhibitory rate (%), 2 hrs.
[7] abbreviates: 4 hrs, read-out: platelet aggregation inhibitory rate (%), 4 hrs.
Where [8] appears, read: 6 hrs, read-out: platelet aggregation inhibitory rate (%), 6 hrs.
Setting [9] is: Homo sapiens, Table 2, same manner as Example 17.

As for `N=C(N)c1ccc(C(=O)NCCC(=O)NC[C@H](NS(=O)(=O)c2ccccc2)C(=O)O)cc1` [Example 1, (2S)-3-(3-(4-amidinobenzoylamino)propanoylamino)-2-benzenesulfonylaminopropanoic Acid], the pIC50 with platelet aggregation [1] (setting [3]) is 7.80; at human fibrinogen, 8.34; with human fibronectin, 6.70; with human vitronectin, 6.00. Moreover, the inhibition in vivo at 0.1 mg/kg in the experiment with platelet aggregation [2] (setting [4]), in the experiment on platelet aggregation [2] (setting [5]), in the experiment on platelet aggregation [2] (setting [6]), in the experiment with platelet aggregation [2] (setting [7]) and with platelet aggregation [2] (setting [8]) was 100% in each case.

`O=C(CCC1CCNCC1)NCCC(=O)NC[C@H](NS(=O)(=O)c1ccccc1)C(=O)O` [Example 2, (2S)-2-benzenesulfonylamino-3-(3-(3-(4-piperidyl)propanoylamino)propanoylamino)propanoic Acid]: the negative-log IC50 (pIC50) in the experiment on platelet aggregation [1] (setting [3]) was 7.40; on human fibrinogen, 7.92; in the experiment on human fibronectin, 6.92; in the experiment on human vitronectin, 4.12. The inhibition in vivo at 0.1 mg/kg in the experiment on platelet aggregation [2] (setting [4]) was 87%; with platelet aggregation [2] (setting [5]) it was 78%; in the experiment on platelet aggregation [2] (setting [6]), 67%; in the experiment with platelet aggregation [2] (setting [7]) it was 32%; in the experiment on platelet aggregation [2] (setting [8]) it was 13%.

`COc1ccc(S(=O)(=O)N[C@@H](CNC(=O)CCNC(=O)c2ccc(C(=N)N)cc2)C(=O)O)cc1` [Example 18, (2S)-3-(3-(4-amidinobenzoylamino)propanoylamino)-2-(4-methoxy)benzenesulfonylaminopropanoic Acid]: the negative-log IC50 (pIC50) in the experiment with platelet aggregation [1] (setting [9]) is 7.48; at human fibrinogen it was 8.14; in the experiment with human fibronectin, 6.40; with human vitronectin, 5.05. Besides, the inhibition in vivo at 0.1 mg/kg stood at 54% with platelet aggregation [2] (setting [4]); 100% with platelet aggregation [2] (setting [5]); 100% in the experiment on platelet aggregation [2] (setting [6]); 73% in the experiment on platelet aggregation [2] (setting [7]); 66% with platelet aggregation [2] (setting [8]).

For `Cc1cc(C)c(S(=O)(=O)N[C@@H](CNC(=O)CCNC(=O)c2ccc(C(=N)N)cc2)C(=O)O)c(C)c1` [Example 19, (2S)-3-(3-(4-amidinobenzoylamino)propanoylamino)-2-(2,4,6-trimethyl)benzenesulfonylaminopropanoic Acid], the negative-log IC50 (pIC50) is 7.52 in the experiment on platelet aggregation [1] (setting [9]), 8.30 at human fibrinogen, 7.33 with human fibronectin and 5.92 in the experiment with human vitronectin. In addition, the inhibition in vivo at 0.1 mg/kg with platelet aggregation [2] (setting [4]) came out at 86%; with platelet aggregation [2] (setting [5]), 93%; in the experiment on platelet aggregation [2] (setting [6]) it was 91%; in the experiment on platelet aggregation [2] (setting [7]) it was 89%; in the experiment on platelet aggregation [2] (setting [8]), 91%.

For the compound `N=C(N)c1ccc(C(=O)NCCC(=O)NC[C@H](NS(=O)(=O)c2cccc3ccccc23)C(=O)O)cc1` [Example 20], the negative-log IC50 (pIC50) in the experiment with platelet aggregation [1] (setting [9]) is 7.24; at human fibrinogen, 8.14; in the experiment with human fibronectin it was 7.10; in the experiment on human vitronectin, 6.30. Also, the inhibition in vivo at 0.1 mg/kg in the experiment on platelet aggregation [2] (setting [4]) turned out to be 76%; with platelet aggregation [2] (setting [5]), 91%; with platelet aggregation [2] (setting [6]), 99%; in the experiment on platelet aggregation [2] (setting [7]) it was 100%; in the experiment with platelet aggregation [2] (setting [8]), 100%.

Turning to `N=C(N)c1ccc(C(=O)NCCC(=O)NC[C@H](NS(=O)(=O)c2ccccc2C(F)(F)F)C(=O)O)cc1` [Example 21, (2S)-3-(3-(4-amidinobenzoylamino)propanoylamino)-2-(2-trifluoromethyl)benzenesulfonylaminopropanoic Acid], the pIC50 was 7.82 in the experiment on platelet aggregation [1] (setting [9]), 8.66 at human fibrinogen, 6.51 in the experiment with human fibronectin and 6.62 in the experiment on human vitronectin. The inhibition in vivo at 0.1 mg/kg in the experiment with platelet aggregation [2] (setting [4]) turned out to be 96%; in the experiment with platelet aggregation [2] (setting [5]), 99%; in the experiment on platelet aggregation [2] (setting [6]), 100%; in the experiment on platelet aggregation [2] (setting [7]) it was 100%; in the experiment on platelet aggregation [2] (setting [8]), 100%.

In the case of `Cc1cc(C)c(S(=O)(=O)N[C@@H](CNC(=O)CCCOc2ccc(C(=N)N)cc2)C(=O)O)c(C)c1` [Example 60, (2S)-3-(4-(4-amidinophenoxy)butanoylamino)-2-(2,4,6-trimethyl)benzenesulfonylaminopropanic Acid], the negative-log IC50 (pIC50) in the experiment with platelet aggregation [1] (setting [9]) was 7.51; at human fibrinogen, 8.82; in the experiment with human fibronectin it was 7.03; in the experiment on human vitronectin, 5.96.

`N=C(N)c1ccc(OCCCC(=O)NC[C@H](NS(=O)(=O)c2ccc(F)cc2)C(=O)O)cc1` [Example 61, (2S)-3-(4-(4-amidinophenoxy)butanoylamino)-2-(4-fluoro)benzenesulfonylaminopropanic Acid]: the pIC50 in the experiment on platelet aggregation [1] (setting [9]) was 7.62; at human fibrinogen, 9.00; with human fibronectin, 7.60; in the experiment with human vitronectin, 6.42. For the same compound, the inhibition in vivo at 0.1 mg/kg with platelet aggregation [2] (setting [4]) was found to be 45%; with platelet aggregation [2] (setting [5]), 32%; with platelet aggregation [2] (setting [6]), 25%; in the experiment with platelet aggregation [2] (setting [7]) it was 48%; with platelet aggregation [2] (setting [8]), 0%.

Turning to `N=C(N)c1ccc(OCCCC(=O)NC[C@H](NS(=O)(=O)c2cccc3ccccc23)C(=O)O)cc1` [Example 62, (2S)-3-(4-(4-amidinophenoxy)butanoylamino)-2-(1-naphthalene)sulfonylaminopropanoic Acid], the pIC50 in the experiment on platelet aggregation [1] (setting [9]) was 7.59; at human fibrinogen, 8.96; in the experiment with human fibronectin, 8.35; in the experiment on human vitronectin, 6.62. Further, the inhibition in vivo at 0.1 mg/kg in the experiment with platelet aggregation [2] (setting [4]) turned out to be 63%; in the experiment with platelet aggregation [2] (setting [5]) it was 69%; with platelet aggregation [2] (setting [6]), 63%; with platelet aggregation [2] (setting [7]), 56%; with platelet aggregation [2] (setting [8]), 50%.

Consider `COc1ccc(S(=O)(=O)N[C@@H](CNC(=O)Cc2ccc(-c3ccc(C(=N)N)cc3)cc2)C(=O)O)cc1` [Example 68, (2S)-3-(2-(4'-amidino-4-biphenylyl)ethanoylamino)-2-(4-methoxy)benzenesulfonylaminopropanoic Acid], for which the negative logarithm of the IC50 (pIC50) was 7.37 in the experiment on platelet aggregation [1] (setting [9]), 7.92 on human fibrinogen, 7.00 with human fibronectin and 5.57 with human vitronectin.

The record behind these values is patent US6048854A, “2,3-diaminopropionic acid derivative” (Sumitomo Pharmaceuticals Company, Limited, priority 1993, dated 2000).
